Experimental data reported in patent US4757083A, “Novel pyrrolidinylamide ester derivatives having anti-prolyl endopeptidase activity and synthesis and use thereof” (Suntory Limited, priority 1985, dated 1988).

Molecular target: prolyl endopeptidase (Elizabethkingia meningoseptica, UniProt P27028)
Assay: Measurement of anti-prolyl endopeptidase activity (Z-glycyl-proline-β-naphthylamide substrate)
Type: biochemical
Conditions: amount for 50% inhibition, pH 7.0, 35° C., 10 minutes, absorbance at 410 nm
Protocol: The method of Yoshimoto and Tsuru [T. Yoshimoto and D. Tsuru, Agric. Biol. Chem., 42, 2417 (1978)] was used to measured the anti-prolyl endopeptidase activities of several compounds of the present invention. A mixture of 0.0025M Z-glycyl-proline-β-naphthylamide (0.25 ml), 0.1M phosphate buffer (pH, 7.0; 0.99 ml) and a solution of a particular anti-prolyl endopeptidase compound (0.01 ml) was incubated in a test tube at 37° C. for 3 minutes. Thereafter, 0.1 ml of a solution of prolyl endopeptidase (0.2 U/ml) was added and the mixture was incubated at 35° C. for 10 minutes. After the reaction, 2.0 ml of Triton X-100 in 1M acetate buffer (pH, 4.0) was added to the reaction mixture so that the final concentration of the surfactant was 10%. The mixture was left at room temperature for 15 minutes and the absorbance (a) at 410 nm was measured.
A sample of a blind test was prepared by using the buffer instead of the anti-prolyl endopeptidase compound and its absorbance (b) was also measured. The percent inhibition of prolyl endopeptidase was calculated by the formula: […]
and the amount of a specific compound needed to achieve 50% inhibition (IC50) was determined.

Chain of prolyl endopeptidase (P27028 21-705): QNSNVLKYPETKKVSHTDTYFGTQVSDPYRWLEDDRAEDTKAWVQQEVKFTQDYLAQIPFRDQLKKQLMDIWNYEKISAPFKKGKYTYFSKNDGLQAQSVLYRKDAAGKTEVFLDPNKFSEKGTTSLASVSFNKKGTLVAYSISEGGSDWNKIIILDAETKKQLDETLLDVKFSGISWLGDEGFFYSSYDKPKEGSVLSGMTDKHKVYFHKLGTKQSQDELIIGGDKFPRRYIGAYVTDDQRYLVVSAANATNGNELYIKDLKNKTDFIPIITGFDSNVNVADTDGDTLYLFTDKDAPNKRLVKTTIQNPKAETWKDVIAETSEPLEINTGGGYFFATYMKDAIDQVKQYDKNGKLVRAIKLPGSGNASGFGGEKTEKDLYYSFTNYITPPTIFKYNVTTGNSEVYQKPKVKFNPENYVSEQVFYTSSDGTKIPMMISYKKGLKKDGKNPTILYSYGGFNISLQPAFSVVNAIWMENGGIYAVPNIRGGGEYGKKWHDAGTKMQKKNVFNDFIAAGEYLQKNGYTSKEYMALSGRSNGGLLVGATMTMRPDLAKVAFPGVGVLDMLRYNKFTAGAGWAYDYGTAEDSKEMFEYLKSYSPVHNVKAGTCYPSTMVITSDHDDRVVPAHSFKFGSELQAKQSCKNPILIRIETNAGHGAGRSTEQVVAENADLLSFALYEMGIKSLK

CCCCCCC(OC(=O)CCCc1ccccc1)C(=O)N1CCCC1 (stereo not drawn) [Example 3, N-[2-(γ-phenyl)butyryloxy-n-capryloyl]pyrrolidine]
IC50: 4.0 μg/test tube

CC(C)C(OC(=O)CCCc1ccccc1)C(=O)N1CCCC1 (stereo not drawn) [Example 2, N-[2-(γ-phenyl)butyryloxy-3-methylbutyryl]pyrrolidine]
IC50: 0.90 μg/test tube

CC(C)CC(OC(=O)CCCc1ccccc1)C(=O)N1CCCC1 (stereo not drawn) [Example 1, N-[2-(γ-phenyl)butyryloxy-4-methylvaleryl]pyrrolidine]
IC50: 0.70 μg/test tube
